# pIC50: −log10 of the molar value.
# Molecular target: Transcription factor Jun (Homo sapiens, UniProt P05412)
# Assay: Inhibition of c-Jun
# Transcription factor Jun, sequence (P05412 whole entry): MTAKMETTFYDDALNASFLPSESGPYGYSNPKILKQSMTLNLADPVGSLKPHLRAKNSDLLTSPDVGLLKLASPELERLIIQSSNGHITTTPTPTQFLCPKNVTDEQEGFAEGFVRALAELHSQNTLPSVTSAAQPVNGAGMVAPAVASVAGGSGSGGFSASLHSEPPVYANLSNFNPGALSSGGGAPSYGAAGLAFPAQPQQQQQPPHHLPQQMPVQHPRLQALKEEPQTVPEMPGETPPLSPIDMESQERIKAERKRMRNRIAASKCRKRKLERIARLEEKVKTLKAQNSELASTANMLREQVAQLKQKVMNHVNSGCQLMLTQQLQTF
row,pIC50,Structure (SMILES)
1,6.54,"Cn1cc(-c2ccc3cnc(Nc4ccc(-n5cnc(-c6ccccn6)n5)cc4)nc3c2)cn1 [7-(1-methyl-1H-pyrazol-4-yl)-N-(4-(3-(pyridin-2-yl)-1H-1,2,4-triazol-1-yl)phenyl)quinazolin-2-amine]"
2,5.52,"c1cc(-c2nccs2)c2nc(Nc3ccc(-n4cnc(N5CCOCC5)n4)cc3)ncc2c1 [N-(4-(3-morpholino-1H-1,2,4-triazol-1-yl)phenyl)-8-(thiazol-2-yl)quinazolin-2-amine]"
3,6.60,"COc1ccc(-c2cccc3cnc(Nc4ccc(-n5cnc(N6CCOCC6)n5)cc4)nc23)cc1F [8-(3-fluoro-4-methoxyphenyl)-N-(4-(3-morpholino-1H-1,2,4-triazol-1-yl)phenyl)quinazolin-2-amine]"
4,6.89,"Cn1cc(-c2ccc3cnc(Nc4ccc(-n5cnc(N6CCOCC6)n5)cc4)nc3c2C2CC2)cn1 [8-cyclopropyl-7-(1-methyl-1H-pyrazol-4-yl)-N-(4-(3-morpholino-1H-1,2,4-triazol-1-yl)phenyl)quinazolin-2-amine]"
5,6.48,"Cn1cc(-c2cccc3cnc(Nc4ccc(-n5cnc(N6CCOCC6)n5)cc4)nc23)cn1 [8-(1-methyl-1H-pyrazol-4-yl)-N-(4-(3-morpholino-1H-1,2,4-triazol-1-yl)phenyl)quinazolin-2-amine]"
6,6.80,"Cc1c(-c2cnn(C)c2)ccc2cnc(Nc3ccc(-n4cnc(N5CCOCC5)n4)cc3)nc12 [8-methyl-7-(1-methyl-1H-pyrazol-4-yl)-N-(4-(3-morpholino-1H-1,2,4-triazol-1-yl)phenyl)quinazolin-2-amine]"
7,6.21,"CC(C)n1cc(-c2ccc3cnc(Nc4ccc(-n5cnc(N6CCOCC6)n5)cc4)nc3c2Cl)cn1 [8-chloro-7-(1-isopropyl-1H-pyrazol-4-yl)-N-(4-(3-morpholino-1H-1,2,4-triazol-1-yl)phenyl)quinazolin-2-amine]"
8,6.30,"COc1ccc(-c2cccc3cnc(Nc4ccc(-n5cnc(C)n5)cc4)nc23)cc1F [8-(3-fluoro-4-methoxyphenyl)-N-(4-(3-methyl-1H-1,2,4-triazol-1-yl)phenyl)quinazolin-2-amine]"
9,5.85,"c1ccc(-c2cccc3cnc(Nc4ccc(-n5cnc(N6CCOCC6)n5)cc4)nc23)cc1 [N-(4-(3-morpholino-1H-1,2,4-triazol-1-yl)phenyl)-8-phenylquinazolin-2-amine]"
10,7.40,"Cc1ccc(-c2ncn(-c3ccc(Nc4ncc5ccc(-c6cn[nH]c6)cc5n4)cc3)n2)cn1 [N-(4-(3-(6-methylpyridin-3-yl)-1H-1,2,4-triazol-1-yl)phenyl)-7-(1H-pyrazol-4-yl)quinazolin-2-amine]"
11,6.03,Cc1ccc(-c2cccc3cnc(NC4CCC(O)CC4)nc23)cn1 (stereo unspecified) [4-(8-(6-methylpyridin-3-yl)quinazolin-2-ylamino)cyclohexanol]
12,7.40,"Cn1cc(-c2ccc3cnc(Nc4ccc(-n5cnc(N6CCOCC6)n5)cc4)nc3c2-c2ccccc2)cn1 [7-(1-methyl-1H-pyrazol-4-yl)-N-(4-(3-morpholino-1H-1,2,4-triazol-1-yl)phenyl)-8-phenylquinazolin-2-amine]"
13,6.92,"c1cc(-n2cnc(N3CCOCC3)n2)ccc1Nc1ncc2ccc(-c3cn[nH]c3)cc2n1 [N-(4-(3-morpholino-1H-1,2,4-triazol-1-yl)phenyl)-7-(1H-pyrazol-4-yl)quinazolin-2-amine]"
14,6.20,"Cc1ccc(-c2cccc3cnc(Nc4ccc5c(c4)OCO5)nc23)cn1 [N-(benzo[d][1,3]dioxol-5-yl)-8-(6-methylpyridin-3-yl)quinazolin-2-amine]"
15,6.51,"Cn1cc(-c2ccc3cnc(Nc4ccc(-n5cnc(N6CCOCC6)n5)cc4)nc3c2)cn1 [7-(1-methyl-1H-pyrazol-4-yl)-N-(4-(3-morpholino-1H-1,2,4-triazol-1-yl)phenyl)quinazolin-2-amine]"
16,5.29,"COc1ccc(-c2cccc3cnc(Nc4ccc(-n5cnc(-c6ccccn6)n5)cc4)nc23)cc1F [8-(3-fluoro-4-methoxyphenyl)-N-(4-(3-(pyridin-2-yl)-1H-1,2,4-triazol-1-yl)phenyl)quinazolin-2-amine]"
17,7.40,"Cn1cc(-c2ccc3cnc(Nc4ccc(-n5cnc(N6CCOCC6)n5)cc4)nc3c2-c2cnn(C)c2)cn1 [7,8-bis(1-methyl-1H-pyrazol-4-yl)-N-(4-(3-morpholino-1H-1,2,4-triazol-1-yl)phenyl)quinazolin-2-amine]"
18,5.52,Cc1ccc(-c2cccc3cnc(N[C@H]4CC[C@@H](C(=O)N5CCCC5)CC4)nc23)cn1 [((cis)-4-(8-(6-methylpyridin-3-yl)quinazolin-2-ylamino)cyclohexyl)(pyrrolidin-1-yl)methanone]
19,6.70,"Cc1ncn(-c2ccc(Nc3ncc4cccc(-c5nccs5)c4n3)cc2)n1 [N-(4-(3-methyl-1H-1,2,4-triazol-1-yl)phenyl)-8-(thiazol-2-yl)quinazolin-2-amine]"
20,7.30,"COc1c(-c2cnn(C)c2)ccc2cnc(Nc3ccc(-n4cnc(N5CCOCC5)n4)cc3)nc12 [8-methoxy-7-(1-methyl-1H-pyrazol-4-yl)-N-(4-(3-morpholino-1H-1,2,4-triazol-1-yl)phenyl)quinazolin-2-amine]"
21,7.00,"Cn1cc(-c2ccc3cnc(Nc4ccc(-n5cnc(N6CCOCC6)n5)cc4)nc3c2Cl)cn1 [8-chloro-7-(1-methyl-1H-pyrazol-4-yl)-N-(4-(3-morpholino-1H-1,2,4-triazol-1-yl)phenyl)quinazolin-2-amine]"

# Reference: BindingDB's records for doi:10.1016/j.bmcl.2011.01.079 (The Scripps Research Institute, 2011)
